The results in this text go back to ChEMBL document CHEMBL5291721, “A preclinical secondary pharmacology resource illuminates target-adverse drug reaction associations of marketed drugs” (Nat Commun, 2023).

One test has as its target Histamine H2 receptor (Homo sapiens, UniProt P25021).
Test [1] has as its target 5-hydroxytryptamine receptor 7 (Homo sapiens, UniProt P34969).
In the next test the target is Cannabinoid receptor 1 (Homo sapiens, UniProt P21554). It is filed as functional.
Test [2] deals with T1, Alpha-1A adrenergic receptor (Homo sapiens, UniProt P35348).
T1 sequence (P35348 whole entry): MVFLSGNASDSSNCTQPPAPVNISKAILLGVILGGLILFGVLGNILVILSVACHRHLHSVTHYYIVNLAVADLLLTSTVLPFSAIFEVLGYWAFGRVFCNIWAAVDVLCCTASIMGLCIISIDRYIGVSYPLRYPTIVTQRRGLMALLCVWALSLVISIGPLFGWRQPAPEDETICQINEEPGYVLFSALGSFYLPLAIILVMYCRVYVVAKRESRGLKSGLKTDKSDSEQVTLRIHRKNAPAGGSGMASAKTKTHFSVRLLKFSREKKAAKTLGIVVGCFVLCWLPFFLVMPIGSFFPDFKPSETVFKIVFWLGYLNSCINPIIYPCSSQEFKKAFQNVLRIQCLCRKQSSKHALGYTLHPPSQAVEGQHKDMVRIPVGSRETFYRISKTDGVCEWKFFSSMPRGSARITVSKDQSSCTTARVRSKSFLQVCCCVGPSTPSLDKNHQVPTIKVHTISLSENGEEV

Test [3] deals with T2, Gamma-aminobutyric acid receptor subunit alpha-1/alpha-2/beta-2/gamma-2 (Homo sapiens, UniProt P14867+P18507+P47869+P47870). It counts as functional, cell-based.
Test [4] has as its target Neurotensin receptor type 1 (Homo sapiens, UniProt P30989).
The target of test [5] is T3, Gastric inhibitory polypeptide receptor (Homo sapiens, UniProt P48546).
T3 sequence (P48546 whole entry): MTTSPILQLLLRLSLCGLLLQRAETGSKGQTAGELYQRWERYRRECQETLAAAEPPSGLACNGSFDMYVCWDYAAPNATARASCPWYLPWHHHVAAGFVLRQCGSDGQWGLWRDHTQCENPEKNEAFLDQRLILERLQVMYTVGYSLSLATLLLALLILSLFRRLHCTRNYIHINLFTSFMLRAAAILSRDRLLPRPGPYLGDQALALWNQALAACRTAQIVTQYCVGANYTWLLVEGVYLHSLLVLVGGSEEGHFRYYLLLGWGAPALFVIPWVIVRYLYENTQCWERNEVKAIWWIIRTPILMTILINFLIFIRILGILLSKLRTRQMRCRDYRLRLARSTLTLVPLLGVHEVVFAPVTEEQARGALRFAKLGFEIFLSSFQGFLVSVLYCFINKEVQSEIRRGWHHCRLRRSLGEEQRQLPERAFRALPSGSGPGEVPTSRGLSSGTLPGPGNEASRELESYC

In test [6] the target is Voltage-dependent N-type calcium channel subunit alpha-1B (Rattus norvegicus, UniProt Q02294). It is filed as functional.
In test [7] the target is 5-hydroxytryptamine receptor 6 (Homo sapiens, UniProt P50406).
For test [8], the target named is T2, Gamma-aminobutyric acid receptor subunit alpha-1/alpha-2/beta-2/gamma-2. It counts as functional, cell-based. The source holds these as a separate data set.
Test [9] has as its target T4, Neuropeptide Y receptor type 2 (Homo sapiens, UniProt P49146).
T4 sequence (P49146 whole entry): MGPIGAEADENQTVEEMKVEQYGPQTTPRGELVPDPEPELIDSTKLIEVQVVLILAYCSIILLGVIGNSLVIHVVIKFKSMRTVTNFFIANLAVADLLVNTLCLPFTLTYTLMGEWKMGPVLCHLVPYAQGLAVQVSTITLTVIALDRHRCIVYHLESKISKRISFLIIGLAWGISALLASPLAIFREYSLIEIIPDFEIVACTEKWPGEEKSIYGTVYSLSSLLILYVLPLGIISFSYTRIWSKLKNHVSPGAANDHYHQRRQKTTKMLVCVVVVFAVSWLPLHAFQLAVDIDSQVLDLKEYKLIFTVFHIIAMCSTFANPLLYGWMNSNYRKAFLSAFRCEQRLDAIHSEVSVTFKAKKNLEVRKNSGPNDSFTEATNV

Test [10] addresses T5, Peroxisome proliferator-activated receptor gamma (Homo sapiens, UniProt P37231).
T5 sequence (P37231 whole entry): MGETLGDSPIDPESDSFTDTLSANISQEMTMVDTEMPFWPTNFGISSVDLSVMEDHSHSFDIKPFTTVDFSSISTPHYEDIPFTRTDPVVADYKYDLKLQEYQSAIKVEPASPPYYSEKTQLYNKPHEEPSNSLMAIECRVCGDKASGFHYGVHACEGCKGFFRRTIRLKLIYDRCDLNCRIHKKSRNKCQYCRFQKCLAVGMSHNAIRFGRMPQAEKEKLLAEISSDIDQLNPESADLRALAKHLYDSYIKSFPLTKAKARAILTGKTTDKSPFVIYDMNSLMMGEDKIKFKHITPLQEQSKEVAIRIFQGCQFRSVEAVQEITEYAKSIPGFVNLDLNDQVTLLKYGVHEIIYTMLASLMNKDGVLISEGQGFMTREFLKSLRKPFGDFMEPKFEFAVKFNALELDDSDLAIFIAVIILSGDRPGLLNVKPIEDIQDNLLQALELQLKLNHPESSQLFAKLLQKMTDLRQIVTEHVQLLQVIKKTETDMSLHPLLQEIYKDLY
It counts as functional.

The target of test [11] is T5, Peroxisome proliferator-activated receptor gamma. It counts as functional. The source holds these as a separate data set.
Test [12] deals with Sodium channel protein type 5 subunit alpha (Homo sapiens, UniProt Q14524). It counts as functional, cell-based.

Where only a bound is given, the exact number is not on record here.
Note: assay procedure not described here.

Chain of Voltage-dependent N-type calcium channel subunit alpha-1B (Q02294 whole entry): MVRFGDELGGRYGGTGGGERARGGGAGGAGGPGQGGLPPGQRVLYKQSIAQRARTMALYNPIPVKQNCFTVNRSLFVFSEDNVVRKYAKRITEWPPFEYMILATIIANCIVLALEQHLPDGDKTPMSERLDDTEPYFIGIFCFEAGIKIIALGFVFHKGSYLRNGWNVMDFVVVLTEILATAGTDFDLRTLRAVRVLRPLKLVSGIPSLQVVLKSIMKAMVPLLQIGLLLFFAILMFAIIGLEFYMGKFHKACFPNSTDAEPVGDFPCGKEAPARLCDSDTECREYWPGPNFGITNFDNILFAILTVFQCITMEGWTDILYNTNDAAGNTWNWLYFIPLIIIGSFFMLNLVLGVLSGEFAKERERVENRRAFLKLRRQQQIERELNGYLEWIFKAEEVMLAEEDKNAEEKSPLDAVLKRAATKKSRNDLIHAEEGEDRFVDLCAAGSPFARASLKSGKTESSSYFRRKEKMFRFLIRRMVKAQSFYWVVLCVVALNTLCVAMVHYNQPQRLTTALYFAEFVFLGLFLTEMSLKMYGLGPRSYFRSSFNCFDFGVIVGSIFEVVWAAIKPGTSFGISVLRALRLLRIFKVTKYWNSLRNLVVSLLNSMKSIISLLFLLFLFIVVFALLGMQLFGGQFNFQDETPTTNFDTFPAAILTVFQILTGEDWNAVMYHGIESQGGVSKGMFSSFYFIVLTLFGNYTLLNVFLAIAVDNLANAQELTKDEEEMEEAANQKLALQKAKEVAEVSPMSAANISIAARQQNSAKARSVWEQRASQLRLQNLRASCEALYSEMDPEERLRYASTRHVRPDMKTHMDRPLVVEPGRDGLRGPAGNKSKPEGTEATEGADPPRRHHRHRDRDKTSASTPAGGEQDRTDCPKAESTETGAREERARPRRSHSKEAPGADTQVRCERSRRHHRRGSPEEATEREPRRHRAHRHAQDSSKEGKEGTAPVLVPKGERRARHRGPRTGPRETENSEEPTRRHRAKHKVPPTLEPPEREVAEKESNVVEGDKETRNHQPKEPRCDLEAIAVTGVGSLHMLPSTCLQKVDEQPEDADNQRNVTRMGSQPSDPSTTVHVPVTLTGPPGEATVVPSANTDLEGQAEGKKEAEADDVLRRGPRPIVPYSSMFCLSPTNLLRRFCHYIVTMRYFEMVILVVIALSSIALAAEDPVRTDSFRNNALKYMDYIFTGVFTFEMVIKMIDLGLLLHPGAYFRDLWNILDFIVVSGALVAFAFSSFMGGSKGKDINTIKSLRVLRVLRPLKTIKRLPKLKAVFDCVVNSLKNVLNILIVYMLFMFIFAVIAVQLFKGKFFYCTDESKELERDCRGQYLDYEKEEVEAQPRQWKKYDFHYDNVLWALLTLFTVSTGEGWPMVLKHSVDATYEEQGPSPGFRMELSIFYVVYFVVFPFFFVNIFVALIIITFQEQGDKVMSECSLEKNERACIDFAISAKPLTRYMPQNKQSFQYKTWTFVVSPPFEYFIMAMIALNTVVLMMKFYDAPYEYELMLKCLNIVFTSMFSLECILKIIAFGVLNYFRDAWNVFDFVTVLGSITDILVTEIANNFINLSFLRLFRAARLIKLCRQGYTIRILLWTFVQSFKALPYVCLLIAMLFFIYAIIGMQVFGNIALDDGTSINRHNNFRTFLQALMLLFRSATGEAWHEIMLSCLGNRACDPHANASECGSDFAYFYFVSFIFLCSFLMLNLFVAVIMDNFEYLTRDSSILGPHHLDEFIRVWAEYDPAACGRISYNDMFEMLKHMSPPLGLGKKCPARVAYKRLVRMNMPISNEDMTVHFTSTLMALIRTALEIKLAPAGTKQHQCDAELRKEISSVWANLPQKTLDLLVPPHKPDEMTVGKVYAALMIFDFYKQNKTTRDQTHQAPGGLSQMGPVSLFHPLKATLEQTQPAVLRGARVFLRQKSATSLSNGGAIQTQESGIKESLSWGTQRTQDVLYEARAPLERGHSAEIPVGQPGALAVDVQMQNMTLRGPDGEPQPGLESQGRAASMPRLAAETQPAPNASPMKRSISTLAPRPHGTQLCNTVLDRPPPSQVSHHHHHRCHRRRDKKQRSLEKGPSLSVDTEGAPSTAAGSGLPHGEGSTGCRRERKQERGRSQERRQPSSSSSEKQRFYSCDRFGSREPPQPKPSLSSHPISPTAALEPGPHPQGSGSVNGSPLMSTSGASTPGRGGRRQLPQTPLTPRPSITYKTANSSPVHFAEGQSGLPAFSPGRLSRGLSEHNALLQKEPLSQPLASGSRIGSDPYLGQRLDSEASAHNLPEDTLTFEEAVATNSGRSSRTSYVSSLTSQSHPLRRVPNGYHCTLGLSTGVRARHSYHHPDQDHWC
T2 sequence (P14867 whole entry): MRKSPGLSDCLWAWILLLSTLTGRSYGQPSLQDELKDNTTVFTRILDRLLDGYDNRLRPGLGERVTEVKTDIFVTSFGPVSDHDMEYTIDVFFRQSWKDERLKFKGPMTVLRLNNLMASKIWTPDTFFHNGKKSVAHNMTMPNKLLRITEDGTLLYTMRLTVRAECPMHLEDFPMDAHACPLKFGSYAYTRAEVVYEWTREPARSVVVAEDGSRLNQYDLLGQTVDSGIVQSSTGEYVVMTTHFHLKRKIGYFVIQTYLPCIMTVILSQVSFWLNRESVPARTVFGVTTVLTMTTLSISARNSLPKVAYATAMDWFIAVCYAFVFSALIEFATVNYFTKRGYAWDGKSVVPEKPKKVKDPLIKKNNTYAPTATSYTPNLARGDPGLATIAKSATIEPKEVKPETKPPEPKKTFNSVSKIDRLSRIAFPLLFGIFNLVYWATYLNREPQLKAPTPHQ
T2 sequence (P47870 whole entry): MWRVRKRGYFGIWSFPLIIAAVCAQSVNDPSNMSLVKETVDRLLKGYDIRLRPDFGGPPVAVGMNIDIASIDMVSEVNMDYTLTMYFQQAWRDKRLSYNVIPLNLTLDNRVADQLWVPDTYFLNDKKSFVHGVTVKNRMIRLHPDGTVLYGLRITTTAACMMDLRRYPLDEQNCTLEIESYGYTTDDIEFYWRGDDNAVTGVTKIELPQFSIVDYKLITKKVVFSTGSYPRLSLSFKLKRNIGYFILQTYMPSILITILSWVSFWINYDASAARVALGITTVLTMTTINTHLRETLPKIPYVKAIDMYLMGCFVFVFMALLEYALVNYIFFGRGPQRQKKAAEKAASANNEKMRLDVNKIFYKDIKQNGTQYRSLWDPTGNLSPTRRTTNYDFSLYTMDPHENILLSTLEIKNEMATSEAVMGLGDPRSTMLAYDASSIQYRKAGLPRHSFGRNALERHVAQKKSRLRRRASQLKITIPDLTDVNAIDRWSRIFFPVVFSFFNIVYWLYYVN
T2 sequence (P18507 whole entry): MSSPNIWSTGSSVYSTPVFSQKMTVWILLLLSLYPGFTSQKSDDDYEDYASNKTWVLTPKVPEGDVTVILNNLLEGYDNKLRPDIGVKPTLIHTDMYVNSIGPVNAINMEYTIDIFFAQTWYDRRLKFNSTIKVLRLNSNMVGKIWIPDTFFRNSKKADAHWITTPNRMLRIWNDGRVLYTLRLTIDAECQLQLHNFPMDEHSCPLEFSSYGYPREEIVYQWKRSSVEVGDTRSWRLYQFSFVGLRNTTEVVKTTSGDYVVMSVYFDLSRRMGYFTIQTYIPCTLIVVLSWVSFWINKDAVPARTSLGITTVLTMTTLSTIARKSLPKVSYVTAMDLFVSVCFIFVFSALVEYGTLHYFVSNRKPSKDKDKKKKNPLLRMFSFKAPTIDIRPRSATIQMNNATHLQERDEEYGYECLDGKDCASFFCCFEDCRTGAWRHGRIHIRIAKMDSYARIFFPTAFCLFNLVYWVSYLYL
T2 sequence (P47869 whole entry): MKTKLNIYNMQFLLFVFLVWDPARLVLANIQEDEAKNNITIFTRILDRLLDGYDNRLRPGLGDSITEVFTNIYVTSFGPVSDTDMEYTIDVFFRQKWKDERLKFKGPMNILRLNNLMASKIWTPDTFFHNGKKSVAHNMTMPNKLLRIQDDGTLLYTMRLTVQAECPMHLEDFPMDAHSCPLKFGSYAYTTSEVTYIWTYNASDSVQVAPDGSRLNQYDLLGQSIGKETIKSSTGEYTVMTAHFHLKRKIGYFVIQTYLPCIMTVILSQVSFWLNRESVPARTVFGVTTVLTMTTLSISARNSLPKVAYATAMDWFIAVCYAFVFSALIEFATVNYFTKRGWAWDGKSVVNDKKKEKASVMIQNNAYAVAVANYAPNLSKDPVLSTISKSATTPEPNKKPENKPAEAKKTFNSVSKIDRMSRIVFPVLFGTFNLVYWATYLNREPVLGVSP
Chain of Histamine H2 receptor (P25021 whole entry): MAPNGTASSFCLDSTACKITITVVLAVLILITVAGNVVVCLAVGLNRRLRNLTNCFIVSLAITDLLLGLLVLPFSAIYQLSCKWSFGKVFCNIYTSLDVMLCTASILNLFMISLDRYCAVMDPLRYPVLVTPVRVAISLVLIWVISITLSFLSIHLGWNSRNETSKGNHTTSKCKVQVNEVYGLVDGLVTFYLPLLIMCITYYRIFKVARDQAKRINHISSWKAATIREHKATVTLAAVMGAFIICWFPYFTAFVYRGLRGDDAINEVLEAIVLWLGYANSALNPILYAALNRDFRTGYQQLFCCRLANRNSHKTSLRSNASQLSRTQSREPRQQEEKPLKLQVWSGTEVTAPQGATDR
Chain of 5-hydroxytryptamine receptor 7 (P34969 whole entry): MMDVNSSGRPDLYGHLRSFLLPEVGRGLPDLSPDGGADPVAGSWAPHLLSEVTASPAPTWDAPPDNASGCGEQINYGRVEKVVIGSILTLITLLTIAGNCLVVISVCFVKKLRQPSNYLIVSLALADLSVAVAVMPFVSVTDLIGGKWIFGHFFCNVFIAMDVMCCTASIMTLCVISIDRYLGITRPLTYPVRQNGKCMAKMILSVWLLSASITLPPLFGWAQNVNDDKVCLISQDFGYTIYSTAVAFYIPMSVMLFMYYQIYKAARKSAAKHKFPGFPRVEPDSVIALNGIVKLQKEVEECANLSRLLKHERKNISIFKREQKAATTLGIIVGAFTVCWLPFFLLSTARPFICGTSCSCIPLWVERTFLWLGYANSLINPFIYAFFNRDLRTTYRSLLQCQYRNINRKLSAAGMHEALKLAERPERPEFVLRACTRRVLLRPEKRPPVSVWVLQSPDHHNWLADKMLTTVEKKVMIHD

With `CNS(=O)(=O)Cc1ccc2[nH]cc(CCN(C)C)c2c1`, the AC50 is more than 10 µM on Histamine H2 receptor; 4.67 µM in [1]; more than 10 µM at Cannabinoid receptor 1; more than 10 µM in test [2]; more than 30 µM in test [3]; more than 30 µM in test [4]. For the same compound, the AC50 is more than 30 µM in [5]; more than 10 µM in [6]; more than 10 µM in test [7]; more than 30 µM in test [8]; more than 30 µM in test [9].
Regarding `CC(=O)O[C@H]1CC[C@@]2(C)C(=CC[C@@H]3[C@@H]2CC[C@]2(C)C(c4cccnc4)=CC[C@@H]32)C1` [ABIRATERONE ACETATE], the AC50 in [10], in test [11] and in [12] was more than 30 µM in each case.
In the case of `NCC(=O)CCC(=O)O` [AMINOLEVULINIC ACID], the AC50 in test [3] and in test [8] was more than 30 µM in each case.
In turn, `COC(=O)C1=C(C)NC(C)=C(C(=O)OC2CCCN(Cc3ccccc3)C2)C1c1cccc([N+](=O)[O-])c1` (stereo unspecified) [BENIDIPINE] yielded an AC50 in test [12] of more than 50 µM.
With `CO/N=C(\C(=O)N[C@@H]1C(=O)N2C(C(=O)O)=C(CSc3nnnn3C)CS[C@H]12)c1csc(N)n1` [CEFMENOXIME], the AC50 in test [10] and in test [11] was more than 30 µM in each case.
As to `CCN1CCN(C(=O)N[C@@H](C(=O)N[C@@H]2C(=O)N3C(C(=O)O)=C(CSc4nnnn4C)CS[C@H]23)c2ccc(O)cc2)C(=O)C1=O` [CEFOPERAZONE], the half-maximal activity concentration (AC50) in test [10], in test [3], in [11] and in test [8] was more than 30 µM in each case.
Regarding `CCCCc1ncc(/C=C(\Cc2cccs2)C(=O)O)n1Cc1ccc(C(=O)O)cc1` [EPROSARTAN], the AC50 on Histamine H2 receptor is more than 10 µM; in test [1], more than 10 µM; on Cannabinoid receptor 1 it was more than 10 µM; in test [2], more than 10 µM; in test [4], more than 30 µM; in test [5], more than 30 µM. Besides, the values for the half-maximal activity concentration (AC50) in test [6], in test [7] and in test [9] were more than 10 µM, more than 10 µM and more than 30 µM, respectively.
For `CCc1c(Cl)c(O)c(Cl)c(O)c1C(=O)O[C@H]1[C@H](O)[C@H](OC)[C@H](OC/C2=C\C=C\C[C@H](O)/C(C)=C/[C@H](CC)[C@@H](O[C@@H]3OC(C)(C)[C@@H](OC(=O)C(C)C)[C@H](O)[C@@H]3O)/C(C)=C/C(C)=C/C[C@@H]([C@@H](C)O)OC2=O)O[C@@H]1C` [FIDAXOMICIN], the concentration at half-maximal activity (AC50) at Histamine H2 receptor was more than 10 µM; in test [2], more than 10 µM; in test [4], more than 30 µM; in test [5], more than 30 µM; in test [6], more than 10 µM; in test [9] it was more than 30 µM.
`CC(C)(C)c1cc(C(C)(C)C)c(NC(=O)c2c[nH]c3ccccc3c2=O)cc1O` [IVACAFTOR]: the concentration at half-maximal activity (AC50) (on Histamine H2 receptor; in test [6]) was more than 10 µM throughout.
As to `CC(C)OC(=O)CCC/C=C\C[C@@H]1[C@@H](CC[C@@H](O)CCc2ccccc2)[C@H](O)C[C@@H]1O` [LATANOPROST], the AC50 in [10], in [3], in [11] and in test [8] was more than 30 µM in each case.
Consider `COC(=O)C1=C(C)NC(C)=C(C(=O)OC(C)(C)CN(C)CCC(c2ccccc2)c2ccccc2)C1c1cccc([N+](=O)[O-])c1` (stereo unspecified) [LERCANIDIPINE], for which, in test [12], the AC50 is more than 50 µM.
With `CCC1(CC)C(=O)NCC(C)C1=O` (stereo unspecified) [METHYPRYLON], the AC50 in test [10], in test [3], in [11] and in [8] was more than 30 µM in each case.
On to `CCCc1nc(C(C)(C)O)c(C(=O)OCc2oc(=O)oc2C)n1Cc1ccc(-c2ccccc2-c2nnn[nH]2)cc1` [OLMESARTAN MEDOXOMIL], for which the AC50 is more than 10 µM in [1]; more than 10 µM on Cannabinoid receptor 1; more than 10 µM in test [2]; more than 30 µM in [4]; more than 30 µM in test [5]; more than 10 µM in test [6]. The concentration at half-maximal activity (AC50) in test [7] was more than 10 µM; in test [9], more than 50 µM.
Regarding `N#Cc1ccc([C@H]2CCc3cncn32)c(F)c1` [OSILODROSTAT], the AC50 (on Histamine H2 receptor; in [1]; on Cannabinoid receptor 1; in test [2]; in [4]; in [6]) was more than 10 µM in each case. Moreover, the half-maximal activity concentration (AC50) in [7] and in [9] was more than 10 µM in each case.
Take `CC[C@@H]1C(=O)OC[C@@H]1Cc1cncn1C` [PILOCARPINE]: in test [6], the AC50 was more than 10 µM.
In turn, `Clc1ccc(CCCOCCCN2CCCCC2)cc1` [PITOLISANT] showed a half-maximal activity concentration (AC50) in [12] of 32 µM.
`CN1CCC(=C2c3ccccc3CCc3sccc32)CC1` [PIZOTYLINE]: the AC50 in test [3] and in test [8] was more than 30 µM in each case.
Turning to `CCCN(CCC)C(=O)C(CCC(=O)O)NC(=O)c1ccccc1` (stereo unspecified) [PROGLUMIDE], the AC50 on Histamine H2 receptor is more than 10 µM; in [4] it was more than 30 µM; in test [5], more than 30 µM; in test [6], more than 10 µM; in test [9], more than 30 µM.
Take `CN1C(=O)C(O)N=C(c2ccccc2)c2cc(Cl)ccc21` (stereo unspecified) [TEMAZEPAM]: the half-maximal activity concentration (AC50) on Histamine H2 receptor was more than 10 µM; in [2], more than 10 µM; in [4], more than 30 µM; in [5] it was more than 30 µM; in [6] it was more than 10 µM; in test [9], more than 30 µM.
Turning to `CCN(CC)C(=O)N[C@H]1C[C@@H]2c3cccc4[nH]cc(c34)C[C@H]2N(C)C1` [TERGURIDE], the concentration at half-maximal activity (AC50) in test [10], in test [3], in [11] and in test [8] was more than 30 µM throughout.
With `C/C(O)=C(\C#N)C(=O)Nc1ccc(C(F)(F)F)cc1` [TERIFLUNOMIDE], the AC50 is 25 µM in [10]; more than 30 µM in test [3]; more than 30 µM in test [11]; more than 50 µM in test [12]; more than 30 µM in test [8].
In turn, `CC(CC(c1ccccc1)c1ccccc1)NC(C)(C)C` (stereo unspecified) [TERODILINE] displayed an AC50 in [12] of 8.65 µM.
Take `CN1CCN(CC/C=C2/c3ccccc3Sc3ccc(S(=O)(=O)N(C)C)cc32)CC1` [THIOTHIXENE]: the half-maximal activity concentration (AC50) on Histamine H2 receptor is 0.145 µM; in test [1], 0.254 µM; on Cannabinoid receptor 1, more than 10 µM; in [2], 0.0624 µM; in test [4], more than 30 µM; in test [5], more than 30 µM. For the same compound, the AC50 in test [6] was more than 10 µM; in test [7] it was 0.455 µM; in test [9], more than 30 µM.
Regarding `O=C(NCCNCC(O)COc1ccc(O)cc1)N1CCOCC1` (stereo unspecified) [XAMOTEROL], the half-maximal activity concentration (AC50) in test [3] and in test [8] was more than 30 µM throughout.
